Activity calls are given as the source filed them. The rule behind the calls is not given here.
system: bacterial quorum sensing reporter inhibition; assay: blockers of quorum-sensing reporter signal in bacteria – dose response (AID 700)

| SMILES | IC50 |
| --- | --- |
| COc1cccc(Oc2cnc(N)nc2-c2ccc(OC)cc2O)c1 | > 20 µM (inactive) |
| Clc1ccc(OCc2nnc3n2N=C(c2ccc4c(c2)OCCO4)CS3)c(Cl)c1 | > 20 µM (inactive) |
| CC(C)[C@@]1(NC(=O)[C@@H]2C[C@@H]3c4cccc5[nH]cc(c45)C[C@H]3N(C)C2)O[C@@]2(O)[C@@H]3CCCN3C(=O)[C@H](Cc3ccccc3)N2C1=O | > 20 µM (inactive) |
| CCc1ccc(N/C(SCc2cccc(F)c2)=C(/C#N)C(=O)NCc2ccco2)cc1 | > 20 µM (inactive) |
| COc1ccc(-c2cnc(SCC(=O)Nc3ccc4c(c3)OCO4)n2Cc2ccco2)cc1 | 16.3 µM (inactive) |
| Cc1cccc(Nc2ccccc2C(=O)O)c1C | 1.02 µM |
| CCc1oc2ccccc2c1C(=O)c1ccc(O)cc1 | 3.28 µM |
| Cc1ccc(N2CC(C(=O)NC3=NCCS3)CC2=O)cc1 (stereo unspecified) | > 20 µM (inactive) |
| CC1CCN(S(=O)(=O)c2ccc3c(c2)oc(=O)n3CC(=O)NCc2ccc3c(c2)OCO3)CC1 | > 20 µM (inactive) |
| O=C(O)c1ccccc1Nc1cccc(C(F)(F)F)c1 | > 20 µM (inactive) |
| Cc1cccc2sc(NC(=O)CN(C)S(=O)(=O)c3ccc(Br)s3)nc12 | > 20 µM (inactive) |
| CC1CCCCN1S(=O)(=O)c1ccc(C(=O)Nc2nnc(-c3cccs3)o2)cc1 (stereo unspecified) | > 20 µM (inactive) |
| CCCn1c(=S)[nH]c2cc(C(=O)N3CCN(c4ccccc4OC)CC3)ccc2c1=O | > 20 µM (inactive) |
| Cc1ccc2[nH]c(=O)c(CN(CCCN(C)C)C(=O)Nc3ccc(Cl)cc3)cc2c1 | 9.03 µM |
| Cc1nn(C(C)(C)C)c(OC(=O)C2CCCC2)c1S(=O)(=O)c1ccccc1 | > 20 µM (inactive) |
| O=C(NCC(c1cccnc1)N1CCN(c2ccccc2F)CC1)c1cccc(Cl)c1 (stereo unspecified) | 1.97 µM |
| O=C(CSc1n[nH]c(-c2ccco2)n1)Nc1sc2c(c1C(=O)Nc1ccccc1)CCCC2 | 3.32 µM |
| Cc1ccc(C)c2[nH]c(=O)c(CN(CCN3CCCC3)C(=O)Nc3ccc(F)cc3)cc12 | > 20 µM (inactive) |
| Cn1c(=O)oc2cc(S(=O)(=O)NCCN3CCN(c4ccccc4F)CC3)ccc21 | > 20 µM (inactive) |
| O=C1CS/C(=N\C(=O)N2c3ccccc3Sc3ccccc32)N1 | 1.42 µM |
| O=C(CCCCn1c(=O)[nH]c2ccccc2c1=O)N1CCN(c2cccc(C(F)(F)F)c2)CC1 | > 20 µM (inactive) |
| O=C(CN1C(=O)CC(c2ccco2)Sc2ccccc21)NCc1ccc2c(c1)OCO2 (stereo unspecified) | 16.5 µM (inactive) |
| CC1CCCN(C(C(=O)Nc2ccc3c(c2)OCO3)c2ccccc2)C1 (stereo unspecified) | 1.25 µM |

| SMILES | IC50 |
| --- | --- |
| Cc1cc(NC(=O)C2CCCC2)nc2c1c(=O)oc1ccccc12 | 18.4 µM (inactive) |
| Cc1ccc2cc(CN(CCN3CCCC3)C(=O)Nc3ccccc3)c(=O)[nH]c2c1C | > 20 µM (inactive) |
| COc1ccc(N(CC(=O)Nc2nc3ccc(C)cc3s2)S(=O)(=O)c2c(C)nn(C)c2C)cc1 | > 20 µM (inactive) |
| CCOC(=O)C1=C(C)NC(C)=C(C(=O)OC)C1c1cccc(Cl)c1Cl (stereo unspecified) | > 20 µM (inactive) |
| O=C(O)CCc1cc(I)c(Oc2ccc(O)c(I)c2)c(I)c1 | 1.78 µM |
| CC1(C)S[C@@H]2[C@H](NC(=O)[C@H](N)c3ccccc3)C(=O)N2[C@H]1C(=O)O | > 20 µM (inactive) |
| c1csc(CCNc2ncnc3sc4c(c23)CCC4)c1 | > 20 µM (inactive) |
| Cc1ccc2[nH]c(=O)c(CN(CCCN(C)C)C(=O)Nc3cccc(Cl)c3)cc2c1 | > 20 µM (inactive) |
| COc1ccc(O)c(C(=O)CC(=O)c2ccc(F)cc2)c1 | > 20 µM (inactive) |
| COc1cccc(-c2cc(C(F)(F)F)nc(NCc3ccco3)n2)c1 | > 20 µM (inactive) |
| N#Cc1c(NC(NC(=O)c2ccco2)C(=O)c2ccccc2)sc2c1CCCC2 (stereo unspecified) | > 20 µM (inactive) |
| CC(C)CCOP(=O)(c1ccc(N(C)C)cc1)C(O)c1ccccc1F (stereo unspecified) | > 20 µM (inactive) |
| CCc1ccc2[nH]c(=O)c(CN(CCCN3CCOCC3)C(=O)Nc3cccc(Cl)c3)cc2c1 | > 20 µM (inactive) |
| COCCn1nnnc1C(c1cc2cc(OC)ccc2[nH]c1=O)N1CCC(Cc2ccccc2)CC1 (stereo unspecified) | > 20 µM (inactive) |
| Cc1c(Cl)cccc1Nc1ccccc1C(=O)O | 1.89 µM |
| CC[C@H]1OC(=O)C[C@@H](O)[C@H](C)[C@@H](O[C@@H]2O[C@H](C)C[C@H](N(C)C)[C@H]2O)[C@@H](CC=O)C[C@@H](C)C(=O)C=C[C@]2(C)O[C@H]2[C@@H]1C | 1.14 µM |
| Cc1ccc(NC(=O)c2cc(C)on2)cc1 | > 20 µM (inactive) |
| Cc1nc2ccccn2c1/C(O)=C1\C(=O)C(=O)N(CCCN(C)C)C1c1ccc(F)cc1 (stereo unspecified) | > 20 µM (inactive) |
| Cc1cc(NC(=O)CC(C)(C)C)nc2c1c(=O)oc1ccccc12 | > 20 µM (inactive) |
| CCOC(=O)Cn1c(=O)oc2cc(S(=O)(=O)Nc3ccc(N(CC)CC)cc3C)ccc21 | > 20 µM (inactive) |
| Cn1cccc1Cc1nnc(SCC(=O)Nc2ccccc2)n1-c1ccc(F)cc1 | > 20 µM (inactive) |
| Cc1ccc(-c2nc(CS(=O)CC(=O)NCCC(C)C)c(C)o2)cc1 (stereo unspecified) | > 20 µM (inactive) |
| Cc1cc(C)c2cc(CN(CCN3CCCC3)C(=O)Nc3ccc(F)cc3)c(=O)[nH]c2c1 | > 20 µM (inactive) |

Source: PubChem BioAssay AID700 (NMMLSC, 2007)
